Experimental data as given in patent publication US20200378950A1, “Glycosylation site-specific antibodies and anti-cancer compounds” (Detroit R & D, Inc., priority 2019, published 2020).

What was measured:
[1] = system: O-GlcNAcylated c-myc in MCF-7 cells; test: Western blot of O-GlcNAcylated c-myc levels in treated MCF-7 cells; assay type: cell-based; conditions: MCF-7, 24 hr treatment, 2 mM, nuclear lysates
Description: MCF-7 cells were grown in MEM/EBSS media (Hyclone, Logan, Utah) supplemented with 10% fetal bovine serum and 0.01 mg/mL insulin. MCF-10A cells were grown in DMEM/F12 media (Hyclone) supplemented with 5% horse serum, […], […], 20 ng/mL EGF, […], 100 units/mL penicillin-streptomycin and 2 mM glutamine. The glucose concentration of MEM/EBSS and DMEM/F12 media are 6 mM and 18 mM, respectively. Cells were maintained in humidified atmosphere with 95% air and 5% CO2 at 37° C.
MCF-7 breast cancer cells were treated for 24 hr with 1% DMSO, with an O-GlcNAcase inhibitor, streptozotocin (STZ), with N^6-methyladenosine 5′-monophosphate [an O-GlcNAcase inhibitor discovered through by screening with the pseudofluorescent substrate 4-methylumbelliferol (4-MU)-GlcNAc (7)] or with media (control) (FIG. 5).
O-GlcNAcase inhibitors, which increased O-GlcNAcylation levels of proteins by preventing cleavage of an O-GlcNAc moiety of Ser or Thr residues, were identified using the antibodies of the present invention. […]
MCF-7 cells were treated for 4 hr with 1% DMSO (negative control) or 2 mM ketoconazole in DMSO and an O-GlcNAcylated c-myc band was detected using a second antibody for O-GlcNAcylated c-myc (Peptide #1-G).

[2] = system: O-GlcNAcylated p53 in MCF-7 cells; test: Western blot of O-GlcNAcylated p53 levels in treated MCF-7 cells; assay type: cell-based; conditions: MCF-7, 24 hr, 2 mM, cytosol-containing supernatants
Description: MCF-7 cells were grown in MEM/EBSS media (Hyclone, Logan, Utah) supplemented with 10% fetal bovine serum and 0.01 mg/mL insulin. […] The glucose concentration of MEM/EBSS and DMEM/F12 media are 6 mM and 18 mM, respectively. Cells were maintained in humidified atmosphere with 95% air and 5% CO2 at 37° C.
MCF-7 cells were grown for 24 hr with treatment of 1% DMSO (negative control) or 2 mM STZ or acetazolamide dissolved in DMSO or 2 mM N^6-methyladenosine 5′-monophosphate dissolved in media. The cells were harvested and cytosol-containing supernatants were obtained.

[3] = system: unmodified c-myc in MCF-7 cells; test: Western blot of unmodified c-myc protein in treated MCF-7 cells; assay type: cell-based; conditions: MCF-7, 4 hr, 2 mM, Peptide #2-N antibody
Description: Western blot analysis was carried out with 10% gel electrophoresis using nuclear lysates obtained from MCF-7 cells with antibodies for O-GlcNAcylated c-myc (Peptide #2-G). […] There was no increase in unmodified c-myc protein after ketoconazole treatment as verified with antibodies for unmodified c-myc (Peptide #2-N) by Western blot analysis.

MCF-7 and MCF10A cells = test: Lactate dehydrogenase (LDH) cytotoxicity assay, MCF-7 compared with MCF10A; assay type: cell-based; conditions: 2 mM, 4 hr
Description: Increased O-GlcNAcylated c-myc levels in MCF-7 cells induced cell death. MCF-7 tumor cell death after 2 mM ketoconazole treatment was compared with MCF10A normal cell death by LDH cytotoxicity assay. After treatment of cells for 4 hr, extracellular media and Triton X-100 solubilized cells were obtained and oxidation of NADH to NAD+ in both fractions was monitored for 2 min at a 340 nm to obtain total (media+cells) LDH release.

[4] = system: MCF-7 breast cancer cells; test: Cell proliferation, MCF-7; assay type: cell-based
Description: Cell proliferation assays were carried out after seeding 3,000-5,000 cells in a 96-well plate with and without treatment of 50 μM ketoconazole dissolved in DMSO (final concentration, 1%) for 72 hr (FIG. 8, Panel A). The cell number was counted after staining the cells with 3-(4,5-dimethylthiazol-2-yl)2,5-diphenyl-tetrazolium bromide (MTT).

[5] = system: MCF10CA1A breast cancer cells; test: QCM ECMatrix cell invasion assay, MCF10CA1A; assay type: cell-based; conditions: MCF-10CA1A, 100 μM for 72 hr
Description: Cell invasiveness of SW480 and HT29 human colon adenocarcinoma cells and MCF10CA1A breast cancer cells with and without 72 hr treatment with 100 μM ketoconazole was studied in 24-well plates using the QCM ECMatrix cell invasion assay kit (EMD Millipore).

[6] = system: Mia Paca-2 pancreatic cancer cells; test: Wound healing (cell migration) assay, Mia Paca-2; assay type: cell-based; conditions: Mia Paca-2, 100 μM
Description: (§1) Wound healing assays were also carried out to verify inhibition of cell migration after ketoconazole treatment.
(§2) Wound healing assays to measure inhibition of cell migration toward scratched area with and without treatment of 100 μM ketoconazole dissolved in DMSO (final concentration, 1%). Percent of cells migrated toward a scratched field are shown. […] Percent of cells migrated toward a scratched field are shown.

[7] = system: PANC1 pancreatic cancer cells; test: Wound healing (cell migration) assay, PANC1; assay type: cell-based; conditions: PANC1, 100 μM
Description: as §1, §2

SW480 colon cancer cells = test: Wound healing (cell migration) assay, SW480; assay type: cell-based, human; conditions: SW480, 100 μM
Description: as §2

HT29 colon cancer cells = test: Wound healing (cell migration) assay, HT29; assay type: cell-based, human; conditions: HT29, 100 μM
Description: as §2

| SMILES | O-GlcNAcylated c-myc levels [1] | Levels of O-GlcNAcylated p53 [2] | unmodified c-myc protein level [3] | cell death in MCF-7 cells higher than in MCF10A cells (LDH release) (MCF-7 and MCF10A cells) | inhibition of cell proliferation [4] | inhibition of migration in cell invasion assay [5] | % cells migrated ([6]; 0 hr) | % cells migrated ([6]; 24 hr) | % cells migrated ([6]; 24 hr, listed as Ketoconazole) | % cells migrated ([6]; 48 hr) | % cells migrated ([7]; 0 hr) | % cells migrated ([7]; 24 hr) | % cells migrated ([7]; 48 hr) | inhibition of cell migration ([7]; wound healing) | Percent of cells migrated (SW480 colon cancer cells; 0 hr) | inhibition of cell migration (SW480 colon cancer cells; 24 hours) | Percent of cells migrated (SW480 colon cancer cells; 24 hr) | Percent of cells migrated (HT29 colon cancer cells; 0 hr) | inhibition of cell migration (HT29 colon cancer cells; 24 hours) | Percent of cells migrated (HT29 colon cancer cells; 24 hr) |
| --- | --- | --- | --- | --- | --- | --- | --- | --- | --- | --- | --- | --- | --- | --- | --- | --- | --- | --- | --- | --- |
| CC(=O)Nc1nnc(S(N)(=O)=O)s1 [acetazolamide] | did not increase | potent inducer |  |  |  |  |  |  |  |  |  |  |  |  |  |  |  |  |  |  |
| CC(=O)N1CCN(c2ccc(OCC3COC(Cn4ccnc4)(c4ccc(Cl)cc4Cl)O3)cc2)CC1 (centres unmarked) [ketoconazole] |  |  | no increase | 84% | inhibited the proliferation | partially inhibited | 0% | 11.6% | 10% | 12% | 0% | 6% | 11% | failed to inhibit | 0 | slightly inhibited | 27 | 0 | slightly inhibited | 8 |
